# Data: patent publication US20120173160A1, “METHODS AND SYSTEMS FOR QUANTITATIVELY ASSESSING BIOLOGICAL EVENTS USING ENERGY-PAIRED SCORING” (The Trustees of the University of Pennsylvania, priority 2010, published 2012)
# “Also recorded” adds a separate entry of the source.
# Assays:
# Format in all cases: cell-based
# Akt-mTOR pathway = assay: EPS Akt-mTOR pathway score in expression data set of cells treated with 1294 compounds; details: screen of 1294 compounds, strongest negative pathway scores
# Description: A potential application of EPS is to identify inhibitors of a selected pathway by searching for compounds that induce gene expression changes with a strongly negative pathway score. To test EPS's ability to identify small-molecule inhibitors of a pathway from a large library of compounds, an Akt-mTOR pathway signature was developed using gene expression profiles from the prostates of transgenic mice expressing activated Akt that were treated with either the mTOR inhibitor RAD001 or a vehicle control (Majumder et al.). This signature was used to estimate Akt-mTOR pathway activity in a data set derived from three cell lines that had been treated with 1294 different compounds (Lamb et al.). […] In fact, test samples treated with LY-294002 represented 8 of the top 9 samples identified (FIG. 11A).
# TGFβ pathway [1] = assay: EPS estimate of TGFβ pathway activity from gene expression of NMuMG cells treated with TGF-β1
# Description: (§1) To determine whether EPS could quantitatively estimate dose-dependent increases in TGFβ pathway activity using gene expression data, EPS prediction was compared to biochemical analysis of phospho-Smad2 levels in the same samples. Using a previously published TGFβ signature generated from NMuMG cells treated with TGF-β1 for 24 hours, it was determined whether SVD or EPS could detect pathway activation in NMuMG cells treated with increasing doses of TGF-β1. SVD detected pathway activation only in samples treated with the highest dose of TGFβ (15 ng/ml; FIG. 6B).
# As expected from increasing TGFβ effects on mRNA levels over time, EPS predicted higher pathway activity in training set samples treated with TGF-β1 for 24 hours than in test samples treated with TGF-β1 for 6 hours. […] Therefore, a TGFβ signature was generated using NMuMG cells treated with the lowest dose of TGFβ (0.15 ng/ml) for the shortest period of time (6 hrs) as the training set. This signature was then used to test the ability of SVD and EPS to predict pathway activation at different TGFβ doses.
# TGFβ pathway [2] = assay: Western blot of Smad2 phosphorylation in NMuMG cells treated with TGF-β1; details: NMuMG cells, 0.15, 0.5, 1.5 or 15 ng/ml, 6 hours
# Description: To determine whether EPS could quantitatively estimate signal pathway activity in a biological data set, a genome-wide expression data set was generated to reflect graded increases in TGFβ pathway activation by treating the mammary epithelial cell line, NMuMG, with increasing dosages of TGF-β1 for 6 hours. Signature genes were selected using a p-value of 10^−10 associated with the changes in expression without fold-change cutoff.
# as §1
Compound,test samples treated with the compound among the top 9 samples identified (Akt-mTOR pathway),"EPS-predicted TGFβ pathway activation, signature from 24 hours treatment (TGFβ pathway [1]; NMuMG cells, 0.5, 1.5 and 15 ng/ml, 6 hours)","EPS-estimated TGFβ pathway activation, signature from 0.15 ng/ml for 6 hrs (TGFβ pathway [1]; NMuMG cells, increasing doses (0.5, 1.5, 15 ng/ml))",TGFβ pathway activity as levels of phosphorylated Smad2 (TGFβ pathway [2])
O=c1cc(N2CCOCC2)oc2c(-c3ccccc3)cccc12 [LY-294002],8,–,–,–
TGF-β1: TGF-β1 used to treat the mammary epithelial cell line NMuMG,–,significantly increased pathway activation,progressive increase of TGFβ pathway activation,dose-dependent increase in TGFβ pathway activity; also recorded: elevated phospho-Smad2 was detected at all doses
